Laboratory results published in patent US7384656B2, “Anti-allergy composition and related method” (Access Business Group International LLC, priority 2004, dated 2008).

Test system: IgE receptor (FcεRIα) on RBL-2H3 cells
Experiment: IgE receptor expression on RBL-2H3 cells (anti-FcεRIα cell ELISA normalized to MTT viability)
Type: cell-based
Conditions: 100 μg/ml
Procedure: The methodology used to obtain the results of FIG. 1 will now be described. First, RBL-2H3 cells, available from ATCC (American Type Culture Collection) of Manassas, Va., were plated in 96 well plates at 3×10^4/well. Following adherence to the wells, the cells were exposed to the sample combinations of ingredients listed in Table I, each combination referred to as a “sample.” Stock solutions of all samples were prepared in a solution of DMSO, ethanol, and water present in a ratio of 5:3:2 at 100 mg/ml. […] Duplicate plates of each sample were prepared so that viability could be determined multiple times for each sample, with the results of the multiple samples averaged following treatment of the cells. The plates were incubated an additional 48 hours. To measure IgE-receptor expression, the cells were fixed for 2 hours with 1% gluteraldehyde. Following fixation, the cells were washed twice with PBS-Tween 20 (0.01%), available from Aldrich of Milwaukee, Wis. Protein binding sites were blocked for 2 hours with 2% non-fat dry milk in PBS (Phosphate Buffer Saline buffered at pH 7.3). The cells were washed twice. The primary antibody, Rabbit anti-FcεRIα, available from Upstate Group, Inc., Lake Placid, N.Y., was added to the wells and diluted 1:4000 with 0.2% BSA (Bovine Serum Albumin). Following a 2 hour incubation, the wells were washed 5× with PBS-Tween 20 (0.01%) solutions. The secondary antibody, Goat anti-rabbit IgG-peroxidase, available from Sigma-Aldrich of St. Louis, Mo., was added to the wells at 1:20000 with 0.2% BSA. Following a 1 hour incubation the wells were washed five times. 100 μliters (microliters) of TMB (3,3′,5,5±Tetramethyl benzidine dihydrochloride) Substrate, available from Chemicon International of Temecula, Calif., was added to the wells. Subsequent color development was stopped by the addition of a sufficient amount, H2SO4 (for example, 100 μliters at 1 Normal). For each of the multiple samples of the combination, the OD450 (Optical Density measured at a wavelength of 450 nanometers) was read on a plate reader. Continuing with a description of the methodology to obtain the data in FIG. 1, the viability of the cells was next determined by incubating the cells in the second plate with MTT in a concentration of 1 mg/ml for 3 hours. The reduced MTT was extracted with 70% isopropanol and the OD540 (Optical Density at a wavelength of 540 nanometers) was read for each of the multiple samples.

O=c1cc(-c2ccc(O)c(O)c2)oc2cc(O)cc(O)c12 [Luteolin]
Percent Control, IgE Receptor Expression (IgE-R) (Table VIII): about 90% | effect on IgE receptor expression, in words (FIG. 7): significant effect | Percent Control IgE-Receptor (Table IV) (relative to untreated control cells): 82% | Percent Control, IgE Receptor Expression (IgE-R) (Table VIII) (listed as Luteolin from Perilla seed): 90.1%
